# From ChEMBL document CHEMBL5380833 (J Med Chem, 2023)
# Assays:
# [1] = molecular target: T1, Protein cereblon/Tyrosine-protein kinase ITK/TSK (Homo sapiens, UniProt Q08881+Q96SW2); assay: PROTAC activity at CRBN/ITK in human Jurkat cells assessed as induction of ITK degradation by Western blot analysis; assay type: cell-based
# Target sequence in this assay (Q96SW2 whole entry, one chain of several): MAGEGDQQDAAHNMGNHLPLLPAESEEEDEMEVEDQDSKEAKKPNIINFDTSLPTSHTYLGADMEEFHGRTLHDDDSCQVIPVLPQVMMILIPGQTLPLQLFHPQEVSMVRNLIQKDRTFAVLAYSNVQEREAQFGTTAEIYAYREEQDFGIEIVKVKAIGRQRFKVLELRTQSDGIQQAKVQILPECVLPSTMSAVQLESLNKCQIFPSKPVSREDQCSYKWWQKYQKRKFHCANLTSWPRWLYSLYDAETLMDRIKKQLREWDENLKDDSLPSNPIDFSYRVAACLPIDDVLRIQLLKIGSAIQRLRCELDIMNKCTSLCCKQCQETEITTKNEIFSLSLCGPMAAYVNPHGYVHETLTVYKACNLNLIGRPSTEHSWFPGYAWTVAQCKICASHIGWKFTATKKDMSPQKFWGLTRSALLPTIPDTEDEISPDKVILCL
# [2] = molecular target: T1, Protein cereblon/Tyrosine-protein kinase ITK/TSK; assay: PROTAC activity at CRBN/ITK in human Jurkat cells assessed as maximum degradation at 0.01 to 10 uM by Western blot analysis relative to control; assay type: cell-based; settings: dose 0.01-10 µM
# Target sequence in this assay (Q96SW2 whole entry, looked up, one chain of several): as the sequence (Q96SW2 whole entry, one chain of several) above
# [3] = molecular target: T2, Tyrosine-protein kinase ITK/TSK (Homo sapiens, UniProt Q08881); assay: Inhibition of ITK (unknown origin)
# T2 sequence (Q08881 whole entry): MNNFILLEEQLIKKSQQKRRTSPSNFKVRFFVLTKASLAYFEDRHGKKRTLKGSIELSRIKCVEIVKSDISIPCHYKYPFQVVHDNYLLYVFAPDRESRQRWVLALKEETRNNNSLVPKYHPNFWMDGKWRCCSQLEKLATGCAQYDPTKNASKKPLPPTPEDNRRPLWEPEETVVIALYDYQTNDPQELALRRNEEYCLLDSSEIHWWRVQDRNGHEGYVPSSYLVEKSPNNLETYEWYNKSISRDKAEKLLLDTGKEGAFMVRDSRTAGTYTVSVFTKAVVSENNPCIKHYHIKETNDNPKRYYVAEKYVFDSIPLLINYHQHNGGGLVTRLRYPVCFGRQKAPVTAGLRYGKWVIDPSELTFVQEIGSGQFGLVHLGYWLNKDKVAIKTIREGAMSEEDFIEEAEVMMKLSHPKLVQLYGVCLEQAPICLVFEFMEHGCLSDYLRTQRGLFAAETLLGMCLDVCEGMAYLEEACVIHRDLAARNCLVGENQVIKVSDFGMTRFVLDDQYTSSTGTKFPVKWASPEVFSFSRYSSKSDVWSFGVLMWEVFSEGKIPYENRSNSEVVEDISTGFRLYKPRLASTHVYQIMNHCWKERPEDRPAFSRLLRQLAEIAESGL
# Interleukin-2 = Interleukin-2 (Homo sapiens, UniProt P60568); assay: Inhibition of IL-2 in human Jurkat T cells pretreated with compound for 16 hrs followed by anti-CD3 stimulation by ELISA analysis; assay type: cell-based
# Sequence of Interleukin-2 (P60568 whole entry): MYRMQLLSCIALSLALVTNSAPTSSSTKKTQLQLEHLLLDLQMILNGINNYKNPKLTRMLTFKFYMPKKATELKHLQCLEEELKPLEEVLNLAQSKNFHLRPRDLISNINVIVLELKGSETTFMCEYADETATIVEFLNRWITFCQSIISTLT
SMILES,EC50 ([1]; read-out: EC50),Emax [2],IC50 [3],EC50 ([1]; jurkat),EC50 (Interleukin-2)
CN(CCOCCOCC(=O)Nc1ccc2c(c1)C(=O)N(C1CCC(=O)NC1=O)C2=O)CC[C@@H](c1ccccc1)n1cc(NC(=O)c2n[nH]c3c2CCC(C)(C)C3)cn1 (some centres not stated),26.7 nM,95%,–,–,–
CN(CCCCCCCCC(=O)Nc1ccc2c(c1)C(=O)N(C1CCC(=O)NC1=O)C2=O)CC[C@@H](c1ccccc1)n1cc(NC(=O)c2n[nH]c3c2CCC(C)(C)C3)cn1 (some centres not stated),5.5 nM,93%,–,–,–
COc1cccc(-n2c(=O)c(C(=O)Nc3ccc(-c4nc(-c5ccnc(N6CC(OC)C6)c5)cnc4N)nc3)c(C)n2C)c1,–,–,< 4 nM,–,–
CN(CCOCCOCCOCC(=O)Nc1ccc2c(c1)C(=O)N(C1CCC(=O)NC1=O)C2=O)CC[C@@H](c1ccccc1)n1cc(NC(=O)c2n[nH]c3c2CCC(C)(C)C3)cn1 (some centres not stated),94.1 nM,93%,–,–,–
CN(CCCCCC(=O)Nc1ccc2c(c1)C(=O)N(C1CCC(=O)N(C)C1=O)C2=O)CC[C@@H](c1ccccc1)n1cc(NC(=O)c2n[nH]c3c2CCC(C)(C)C3)cn1 (some centres not stated),–,–,–,Not Active,–
CC1(C)CCc2c(C(=O)Nc3cnn([C@@H](CCN4CCN(CC5CN(c6ccc7c(c6)C(=O)N(C6CCC(=O)NC6=O)C7=O)C5)CC4)c4ccccc4)c3)n[nH]c2C1 (some centres not stated),10 nM,85%,–,–,–
CN(CCCCCCC(=O)Nc1ccc2c(c1)C(=O)N(C1CCC(=O)NC1=O)C2=O)CC[C@@H](c1ccccc1)n1cc(NC(=O)c2n[nH]c3c2CCC(C)(C)C3)cn1 (some centres not stated),9 nM,90%,–,–,–
CN(CCCCCCCCCCC(=O)Nc1ccc2c(c1)C(=O)N(C1CCC(=O)NC1=O)C2=O)CC[C@@H](c1ccccc1)n1cc(NC(=O)c2n[nH]c3c2CCC(C)(C)C3)cn1 (some centres not stated),75.4 nM,82%,–,–,–
COc1cc(C)c(Sc2cnc(NC(=O)c3ccc(CNC(C)C(C)(C)C)cc3)s2)cc1C(=O)N1CCN(C(C)=O)CC1 (configuration not stated),–,–,–,–,238 nM
CN(CCOCCOCCOCC(=O)Nc1cccc2c1C(=O)N(C1CCC(=O)NC1=O)C2=O)CC[C@@H](c1ccccc1)n1cc(NC(=O)c2n[nH]c3c2CCC(C)(C)C3)cn1 (some centres not stated),353 nM,75%,–,–,–
CC1(C)CCc2c(C(=O)Nc3cnn([C@@H](CCN4CCN(CCC5CN(c6ccc7c(c6)C(=O)N(C6CCC(=O)NC6=O)C7=O)C5)CC4)c4ccccc4)c3)n[nH]c2C1 (some centres not stated),142 nM,90%,–,–,–
CN(CCOCCOCCOCCOCC(=O)Nc1cccc2c1C(=O)N(C1CCC(=O)NC1=O)C2=O)CC[C@@H](c1ccccc1)n1cc(NC(=O)c2n[nH]c3c2CCC(C)(C)C3)cn1 (some centres not stated),286 nM,75%,–,–,–
CN(CCCCC(=O)Nc1ccc2c(c1)C(=O)N(C1CCC(=O)NC1=O)C2=O)CC[C@@H](c1ccccc1)n1cc(NC(=O)c2n[nH]c3c2CCC(C)(C)C3)cn1 (some centres not stated),5.3 nM,90%,–,–,–
CN(CCOCCC(=O)NC1=CCC2C(=O)N(C3CCC(=O)NC3=O)C(=O)C2=C1)CC[C@@H](c1ccccc1)n1cc(NC(=O)c2n[nH]c3c2CCC(C)(C)C3)cn1 (some centres not stated),15.6 nM,97%,–,–,–
CC1(C)CCc2c(C(=O)Nc3cnn([C@@H](CCN4CCN(CC5CCN(c6ccc7c(c6)C(=O)N(C6CCC(=O)NC6=O)C7=O)CC5)CC4)c4ccccc4)c3)n[nH]c2C1 (some centres not stated),29.3 nM,90%,–,–,–
CN(CCOCCOCC(=O)Nc1cccc2c1C(=O)N(C1CCC(=O)NC1=O)C2=O)CC[C@@H](c1ccccc1)n1cc(NC(=O)c2n[nH]c3c2CCC(C)(C)C3)cn1 (some centres not stated),220 nM,75%,–,–,–
CN(CCOCCOCCNC(=O)CNc1cccc2c1C(=O)N(C1CCC(=O)NC1=O)C2=O)CC[C@@H](c1ccccc1)n1cc(NC(=O)c2n[nH]c3c2CCC(C)(C)C3)cn1 (some centres not stated),32.7 nM,95%,–,–,–
CN(CCOCCNC(=O)CNc1cccc2c1C(=O)N(C1CCC(=O)NC1=O)C2=O)CC[C@@H](c1ccccc1)n1cc(NC(=O)c2n[nH]c3c2CCC(C)(C)C3)cn1 (some centres not stated),32.7 nM,99%,–,–,–
CN(CCOCCOCCOCCOCC(=O)Nc1ccc2c(c1)C(=O)N(C1CCC(=O)NC1=O)C2=O)CC[C@@H](c1ccccc1)n1cc(NC(=O)c2n[nH]c3c2CCC(C)(C)C3)cn1 (some centres not stated),106 nM,92%,–,–,–
CN(CCOCCOCCOCCNC(=O)CNc1cccc2c1C(=O)N(C1CCC(=O)NC1=O)C2=O)CC[C@@H](c1ccccc1)n1cc(NC(=O)c2n[nH]c3c2CCC(C)(C)C3)cn1 (some centres not stated),62.2 nM,93%,–,–,–
